Results reported in the NIST ThermoML archive (doi:10.1016/j.jct.2005.04.011).
Numbers after ± are expanded uncertainties.

Key:
[1] = cn = amount concentration of the nth substance listed, in mol/dm3; conditions: 101 kPa, Liquid, c1 = 0.2; for mass density: Pycnometric method
[2] = refractive index (Na D-line) (dimensionless); cn = amount concentration of the nth substance listed, in mol/dm3; conditions: 101 kPa, Liquid, Standard Abbe refractometry, c1 = 0.2

O=C[C@H](O)[C@@H](O)[C@H](O)[C@H](O)CO [D-glucose] + O
Conditions | mass density, 298.15 K [kg/m3] | mass density, 313.15 K [kg/m3] | refractive index, 298.15 K | refractive index, 303.15 K | refractive index, 308.15 K | refractive index, 313.15 K | viscosity, 298.15 K [mPa·s] | viscosity, 303.15 K [mPa·s] | viscosity, 308.15 K [mPa·s] | viscosity, 313.15 K [mPa·s]
[1] | 1010.3 ± 0.3 | 1005.3 ± 0.4 | – | – | – | – | 1.01 ± 0.03 | 0.89 ± 0.02 | 0.8 ± 0.02 | 0.7 ± 0.02
[2] | – | – | 1.336 ± 0.002 | 1.335 ± 0.002 | 1.3349 ± 0.002 | 1.334 ± 0.002 | – | – | – | –
